Measurements taken from US20250019379A1, “NEW CRYSTAL FORM OF COMPOUND, AND PREPARATION METHOD THEREFOR AND USE THEREOF” (E-nitiate Biopharmaceuticals (Hangzhou) Co., Ltd, priority 2021, published 2025).
Several values for one entry are separate records, joined by “and”; a condition that tells them apart may be missing. Equal entries are not always repeated. Marks after values point to notes of the source that are not given here.

Tested on: psoriasis animal model
Test: Psoriasis animal model (imiquimod cream induced)
Assay type: in vivo, C57/BL 6J mice
Conditions: for Inhibition rate of skin thickening: 7th day of treatment
Source text: C57/BL 6J mice, 75, female, 7-8 weeks old, weight 18 g-20 g. The animals were from Zhejiang Weitong Lihua Experimental Animal Technology Co., Ltd. (SCXK (Zhejiang) 2019-0001), experimental animal production certificate number 20210107Abzz0619000247; experimental animal use license number: SYXK (Shanghai) 2020-0001 (Via Biotechnology (Shanghai Co., Ltd).
Modeling and administration method: Use depilatory cream to remove hair from an area of about 2 cm×3 cm on the back of each animal. Control the application time of depilatory cream within 2 minutes. Wash the depilated area with warm water, wash off the depilatory agent, and use immediately. Dry the animal's hair with a hair dryer, and place the animal on a constant-temperature electric blanket at 37° C. for 1 h-2 h. After the animal moves freely, it is placed in a cage for normal rearing and recovery for 1 day (if any animal has red, swollen and damaged skin after hair removal, remove it). On the second day, 54 animals with normal skin were selected and randomly grouped according to body weight, with 9 animals in each group, a total of 6 groups. Each animal in the G2-G6 group was evenly applied with 60 mg (60 μL) of 5 wt % imiquimod cream (Aldara) on the back every day for seven consecutive days.
Skin thickness (double-layer): Use a vernier caliper to measure the double-layer thickness of the back skin before drug administration and modeling, and on days 1, 3, 5, and 7 after drug administration.
PASI score: The condition score refers to the clinical PASI scoring standard, and scores three indicators: erythema, scale, and thickness. The total score is 12 points. The scoring standards are as follows:
Erythema: 0 points, none; 1 points, slight: light red; 2 points, moderate: red; 3 points, significant: dark red; 4 points, very obvious: extremely deep red.
Scaling: 0 points, none; 1 point, slight: there are scales on part of the epidermis, mainly fine scales; 2 points, moderate: most of the skin surface is completely or incompletely covered with scales, in a flaky form; 3 points, Significant: almost all skin is covered with scales, and the scales are thick and layered; 4 points, very obvious: all the skin is covered with scales, and the scales are thick and layered.
Plaque thickening degree: 0 points, none: flush with normal skin; 1 points, slight: slightly higher than the skin surface: 2 points, moderate: moderately raised, with round or sloped plaque edges; 3 points, obvious Score: The plaque is hypertrophic and the bulge is obvious; 4 points, very significant: it is highly thickened and the bulge is very obvious.
Skin proliferation inhibition rate (%)=1−[(skin thickness of the treatment group on the 7th day−skin thickness of the blank control group on the 7th day)/skin thickness of the negative control group on the 7th day−skin thickness of the blank control group on the 7th day)]%.
All data are expressed as Mean t SEM. The statistical analysis software SPSS23.0 was used to conduct normal distribution and homogeneity of variance tests on the data. Based on the results, the single-factor analysis of variance method was selected and the homogeneity of variance test was selected based on the results. *P<0.05 will be considered a statistically significant difference.

[1] = 0.5 mg/kg oral twice a day, Day 0
[2] = 0.5 mg/kg oral twice a day, Day 1
[3] = 0.5 mg/kg oral twice a day, Day 3
[4] = 0.5 mg/kg oral twice a day, Day 5
[5] = 0.5 mg/kg oral twice a day, Day 7
[6] = 1.5 mg/kg oral twice a day, Day 0
[7] = 1.5 mg/kg oral twice a day, Day 1
[8] = 1.5 mg/kg oral twice a day, Day 3
[9] = 1.5 mg/kg oral twice a day, Day 5
[10] = 1.5 mg/kg oral twice a day, Day 7
[11] = 1.5 mg/kg oral twice a day, Day 7, listed as crystalline form A
[12] = 5 mg/kg oral twice a day, Day 0
[13] = 5 mg/kg oral twice a day, Day 1
[14] = 5 mg/kg oral twice a day, Day 3
[15] = 5 mg/kg oral twice a day, Day 5
[16] = 5 mg/kg oral twice a day, Day 7
[17] = 5 mg/kg oral twice a day, Day 7, listed as crystalline form A

C[C@@H](O)c1nc2cnc3[nH]ccc3c2n1N1CCC(CC#N)CC1 [Crystalline form A, (R)-2-(1-(2-(1-hydroxyethyl)imidazo[4,5-d]pyrrolo[2,3-b]pyridine-1(6H)-yl)piperidin-4-yl)acetonitrile]
Inhibition rate of skin thickening (0.5 mg/kg oral twice a day): 34.6% | Average skin thickness (double layer) [1]: 0.50 ± 0.01 mm | PASI score [1]: 0.0 points | Average skin thickness (double layer) [2]: 0.60 ± 0.01 mm | PASI score [2]: 0.0 points | Average skin thickness (double layer) [3]: 1.57 ± 0.11 mm | PASI score [3]: 6.6 ± 0.69 points | Average skin thickness (double layer) [4]: 1.27 ± 0.1*** mm | PASI score [4]: 5.9 ± 0.79** points | Average skin thickness (double layer) [5]: 1.32 ± 0.09 mm and 1.32 mm | PASI score [5]: 6.1 ± 0.56*** points | PASI score (0.5 mg/kg oral twice a day, Day 7, listed as crystalline form A): 6.1 points | Inhibition rate of skin thickening (1.5 mg/kg oral twice a day): 56.4% | Inhibition rate of skin thickening (1.5 mg/kg oral twice a day, listed as crystalline form A): 56.4% | Average skin thickness (double layer) [6]: 0.50 ± 0.01 mm | PASI score [6]: 0.0 points | Average skin thickness (double layer) [7]: 0.61 ± 0.02 mm | PASI score [7]: 0.0 points | Average skin thickness (double layer) [8]: 1.76 ± 0.15 mm | PASI score [8]: 6.1 ± 0.56 points | Average skin thickness (double layer) [9]: 1.53 ± 0.08** mm | PASI score [9]: 7.0 ± 0.53 points | Average skin thickness (double layer) [10]: 1.15 ± 0.04** mm and 1.15 mm | PASI score [10]: 4.9 ± 0.39*** points | Average skin thickness (double layer) [11]: 1.15 mm | PASI score [11]: 4.9 points | Inhibition rate of skin thickening (5 mg/kg oral twice a day): 71.8% | Inhibition rate of skin thickening (5 mg/kg oral twice a day, listed as crystalline form A): 71.8% | Average skin thickness (double layer) [12]: 0.50 ± 0.01 mm | PASI score [12]: 0.0 points | Average skin thickness (double layer) [13]: 0.64 ± 0.01 mm | PASI score [13]: 0.0 points | Average skin thickness (double layer) [14]: 1.35 ± 0.10* mm | PASI score [14]: 4.9 ± 0.48 points | Average skin thickness (double layer) [15]: 1.24 ± 0.11*** mm | PASI score [15]: 4.7 ± 0.58*** points | Average skin thickness (double layer) [16]: 1.03 ± 0.03*** mm and 1.03 mm | PASI score [16]: 3.6 ± 0.44*** points | Average skin thickness (double layer) [17]: 1.03 mm | PASI score [17]: 3.6 points
